According to the supplement of paper PMC10307832:

How the values were obtained:
Assay in all cases: relative viability (nuclei count vs DMSO), 5 days (fraction); higher = more cells survive
[1] = compound: OCc1c[nH]c2ccccc12 [Indole-3-carbinol] + CC(=O)Nc1cccc(-n2c(=O)n(C3CC3)c(=O)c3c(Nc4ccc(I)cc4F)n(C)c(=O)c(C)c32)c1 [Trametinib] (partner 0.02 µM)
Procedure, shortened: (§1)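 Values are medians from duplicate plates. Each reflects relative viability, defined as the nuclei count of treated wells over that of vehicle wells. Lung cancer cell lines in 1536-well plates were pin-tool dosed one day after seeding with one drug alone or with a fixed anchor-drug dose plus five library-drug doses (not always all listed) in √10 steps, then fixed, stained and imaged at 4× after 5 days.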

[2] = compound: OCc1c[nH]c2ccccc12 [Indole-3-carbinol] + CC1(C)CCC(c2ccc(Cl)cc2)=C(CN2CCN(c3ccc(C(=O)NS(=O)(=O)c4ccc(N[C@H](CCN5CCOCC5)CSc5ccccc5)c(S(=O)(=O)C(F)(F)F)c4)cc3)CC2)C1 [Navitoclax] (partner 0.5 µM)
Procedure, shortened: as §1

[3] = compound: OCc1c[nH]c2ccccc12 [Indole-3-carbinol] + COc1cccc2cc(-c3nc([C@H]4CC[C@H](C(=O)O)CC4)n4ncnc(N)c34)[nH]c12 [OSI-027] (partner 0.5 µM)
Procedure, shortened: as §1

[4] = compound: OCc1c[nH]c2ccccc12 [Indole-3-carbinol] + Cc1cc(Nc2cc(N3CCN(C)CC3)nc(Sc3ccc(NC(=O)C4CC4)cc3)n2)n[nH]1 [Tozasertib] (partner 0.1 µM)
Procedure, shortened: as §1

[5] = compound: OCc1c[nH]c2ccccc12 [Indole-3-carbinol] + O=C(c1cc(Cc2n[nH]c(=O)c3ccccc23)ccc1F)N1CCN(C(=O)C2CC2)CC1 [Olaparib] (partner 8 µM)
Procedure, shortened: as §1

Cell Line: NCI-H2085
- relative viability ([1]; first compound 0.253 µM): 0.884
- relative viability ([1]; first compound 0.8 µM): 0.514
- relative viability ([1]; first compound 2.53 µM): 0.56
- relative viability ([1]; first compound 8 µM): 0.622
- relative viability ([2]; first compound 0.253 µM): 1.1
- relative viability ([2]; first compound 0.8 µM): 1.02
- relative viability ([2]; first compound 2.53 µM): 1.15
- relative viability ([2]; first compound 8 µM): 1.05
- relative viability ([3]; first compound 0.253 µM): 0.76
- relative viability ([3]; first compound 0.8 µM): 0.884
- relative viability ([3]; first compound 2.53 µM): 0.747
- relative viability ([3]; first compound 8 µM): 0.684
- relative viability ([4]; first compound 0.253 µM): 0.848
- relative viability ([4]; first compound 0.8 µM): 0.914
- relative viability ([4]; first compound 2.53 µM): 0.887
- relative viability ([4]; first compound 8 µM): 0.79
- relative viability ([5]; first compound 0.253 µM): 0.9
- relative viability ([5]; first compound 0.8 µM): 0.844
- relative viability ([5]; first compound 2.53 µM): 0.773
- relative viability ([5]; first compound 8 µM): 0.691

Cell Line: NCI-H2087
- relative viability ([1]; first compound 0.253 µM): 0.179
- relative viability ([1]; first compound 0.8 µM): 0.23
- relative viability ([1]; first compound 2.53 µM): 0.193
- relative viability ([1]; first compound 8 µM): 0.201
- relative viability ([2]; first compound 0.253 µM): 1.04
- relative viability ([2]; first compound 0.8 µM): 1.22
- relative viability ([2]; first compound 2.53 µM): 1.02
- relative viability ([2]; first compound 8 µM): 0.967
- relative viability ([3]; first compound 0.253 µM): 0.435
- relative viability ([3]; first compound 0.8 µM): 0.644
- relative viability ([3]; first compound 2.53 µM): 0.571
- relative viability ([3]; first compound 8 µM): 0.513
- relative viability ([4]; first compound 0.253 µM): 0.214
- relative viability ([4]; first compound 0.8 µM): 0.294
- relative viability ([4]; first compound 2.53 µM): 0.283
- relative viability ([4]; first compound 8 µM): 0.296
- relative viability ([5]; first compound 0.253 µM): 0.575
- relative viability ([5]; first compound 0.8 µM): 0.631
- relative viability ([5]; first compound 2.53 µM): 0.625
- relative viability ([5]; first compound 8 µM): 0.541

Cell Line: NCI-H2126
- relative viability ([1]; first compound 0.253 µM): 0.573
- relative viability ([1]; first compound 0.8 µM): 0.577
- relative viability ([1]; first compound 2.53 µM): 0.541
- relative viability ([1]; first compound 8 µM): 0.509
- relative viability ([2]; first compound 0.253 µM): 0.824
- relative viability ([2]; first compound 0.8 µM): 0.872
- relative viability ([2]; first compound 2.53 µM): 0.865
- relative viability ([2]; first compound 8 µM): 0.83
- relative viability ([3]; first compound 0.253 µM): 0.706
- relative viability ([3]; first compound 0.8 µM): 0.745
- relative viability ([3]; first compound 2.53 µM): 0.65
- relative viability ([3]; first compound 8 µM): 0.791
- relative viability ([4]; first compound 0.253 µM): 0.849
- relative viability ([4]; first compound 0.8 µM): 0.876
- relative viability ([4]; first compound 2.53 µM): 0.793
- relative viability ([4]; first compound 8 µM): 0.866
- relative viability ([5]; first compound 0.253 µM): 0.859
- relative viability ([5]; first compound 0.8 µM): 1
- relative viability ([5]; first compound 2.53 µM): 0.934
- relative viability ([5]; first compound 8 µM): 0.87

Cell Line: NCI-H2170
- relative viability ([1]; first compound 0.253 µM): 0.882
- relative viability ([1]; first compound 0.8 µM): 0.859
- relative viability ([1]; first compound 2.53 µM): 0.892
- relative viability ([1]; first compound 8 µM): 0.869
- relative viability ([2]; first compound 0.253 µM): 0.577
- relative viability ([2]; first compound 0.8 µM): 0.766
- relative viability ([2]; first compound 2.53 µM): 0.682
- relative viability ([2]; first compound 8 µM): 0.607
- relative viability ([3]; first compound 0.253 µM): 0.702
- relative viability ([3]; first compound 0.8 µM): 0.815
- relative viability ([3]; first compound 2.53 µM): 0.749
- relative viability ([3]; first compound 8 µM): 0.671
- relative viability ([4]; first compound 0.253 µM): 0.703
- relative viability ([4]; first compound 0.8 µM): 0.712
- relative viability ([4]; first compound 2.53 µM): 0.79
- relative viability ([4]; first compound 8 µM): 0.717
- relative viability ([5]; first compound 0.253 µM): 0.633
- relative viability ([5]; first compound 0.8 µM): 0.617
- relative viability ([5]; first compound 2.53 µM): 0.597
- relative viability ([5]; first compound 8 µM): 0.586

Cell Line: NCI-H2228
- relative viability ([1]; first compound 0.253 µM): 0.576
- relative viability ([1]; first compound 0.8 µM): 0.614
- relative viability ([1]; first compound 2.53 µM): 0.501
- relative viability ([1]; first compound 8 µM): 0.581
- relative viability ([2]; first compound 0.253 µM): 0.845
- relative viability ([2]; first compound 0.8 µM): 1.06
- relative viability ([2]; first compound 2.53 µM): 0.91
- relative viability ([2]; first compound 8 µM): 0.674
- relative viability ([3]; first compound 0.253 µM): 0.477
- relative viability ([3]; first compound 0.8 µM): 0.724
- relative viability ([3]; first compound 2.53 µM): 0.597
- relative viability ([3]; first compound 8 µM): 0.651
- relative viability ([4]; first compound 0.253 µM): 0.208
- relative viability ([4]; first compound 0.8 µM): 0.303
- relative viability ([4]; first compound 2.53 µM): 0.254
- relative viability ([4]; first compound 8 µM): 0.265
- relative viability ([5]; first compound 0.253 µM): 0.659
- relative viability ([5]; first compound 0.8 µM): 0.707
- relative viability ([5]; first compound 2.53 µM): 0.532
- relative viability ([5]; first compound 8 µM): 1.01

Cell Line: NCI-H2347
- relative viability ([1]; first compound 0.253 µM): 0.422
- relative viability ([1]; first compound 0.8 µM): 0.276
- relative viability ([1]; first compound 2.53 µM): 0.296
- relative viability ([1]; first compound 8 µM): 0.29
- relative viability ([2]; first compound 0.253 µM): 0.765
- relative viability ([2]; first compound 0.8 µM): 0.782
- relative viability ([2]; first compound 2.53 µM): 0.814
- relative viability ([2]; first compound 8 µM): 0.699
- relative viability ([3]; first compound 0.253 µM): 0.429
- relative viability ([3]; first compound 0.8 µM): 0.374
- relative viability ([3]; first compound 2.53 µM): 0.287
- relative viability ([3]; first compound 8 µM): 0.364
- relative viability ([4]; first compound 0.253 µM): 0.614
- relative viability ([4]; first compound 0.8 µM): 0.54
- relative viability ([4]; first compound 2.53 µM): 0.571
- relative viability ([4]; first compound 8 µM): 0.538
- relative viability ([5]; first compound 0.253 µM): 0.624
- relative viability ([5]; first compound 0.8 µM): 0.582
- relative viability ([5]; first compound 2.53 µM): 0.634
- relative viability ([5]; first compound 8 µM): 0.549

Cell Line: NCI-H2405
- relative viability ([1]; first compound 0.253 µM): 0.634
- relative viability ([1]; first compound 0.8 µM): 0.615
- relative viability ([1]; first compound 2.53 µM): 0.672
- relative viability ([1]; first compound 8 µM): 0.703
- relative viability ([2]; first compound 0.253 µM): 1.06
- relative viability ([2]; first compound 0.8 µM): 0.563
- relative viability ([2]; first compound 2.53 µM): 0.964
- relative viability ([2]; first compound 8 µM): 0.837
- relative viability ([3]; first compound 0.253 µM): 0.617
- relative viability ([3]; first compound 0.8 µM): 0.676
- relative viability ([3]; first compound 2.53 µM): 0.633
- relative viability ([3]; first compound 8 µM): 0.656
- relative viability ([4]; first compound 0.253 µM): 0.751
- relative viability ([4]; first compound 0.8 µM): 0.806
- relative viability ([4]; first compound 2.53 µM): 0.758
- relative viability ([4]; first compound 8 µM): 0.776
- relative viability ([5]; first compound 0.253 µM): 0.907
- relative viability ([5]; first compound 0.8 µM): 0.889
- relative viability ([5]; first compound 2.53 µM): 0.908
- relative viability ([5]; first compound 8 µM): 0.823

Cell Line: NCI-H3122
- relative viability ([1]; first compound 0.253 µM): 0.229
- relative viability ([1]; first compound 0.8 µM): 0.255
- relative viability ([1]; first compound 2.53 µM): 0.234
- relative viability ([1]; first compound 8 µM): 0.248
- relative viability ([2]; first compound 0.253 µM): 1.04
- relative viability ([2]; first compound 0.8 µM): 1.01
- relative viability ([2]; first compound 2.53 µM): 1.02
- relative viability ([2]; first compound 8 µM): 1.01
- relative viability ([3]; first compound 0.253 µM): 0.967
- relative viability ([3]; first compound 0.8 µM): 1.08
- relative viability ([3]; first compound 2.53 µM): 1.02
- relative viability ([3]; first compound 8 µM): 0.948
- relative viability ([4]; first compound 0.253 µM): 0.398
- relative viability ([4]; first compound 0.8 µM): 0.383
- relative viability ([4]; first compound 2.53 µM): 0.483
- relative viability ([4]; first compound 8 µM): 0.372
- relative viability ([5]; first compound 0.253 µM): 0.65
- relative viability ([5]; first compound 0.8 µM): 0.612
- relative viability ([5]; first compound 2.53 µM): 0.495
- relative viability ([5]; first compound 8 µM): 0.538
